Counter-ions that a name gives are not always drawn.

Compound `Cc1ccc(C(NC2CCN(C)CC2)c2nc3ccccc3s2)cc1` (centres unmarked) (as salt: oxalate) [Example 36, (benzothiazol-2-yl-p-tolylmethyl)(1-methylpiperidin-4-yl)amine] came in with a melting point of 110 °C.
The compound `CNC1CCN(c2cccc(C(OC3CCN(C)CC3)c3nc4ccccc4s3)c2)C1` (centres unmarked) (as salt: oxalate) [Example 483] showed a melting point of 115 °C.
Next, `COCCn1c(C(OC2CCN(C)CC2)c2cccc(C#CCCCCN)c2)nc2ccccc21` (centres unmarked) (as salt: oxalate) [Example 501]: 109 °C; `CN1CCC(OC(c2ccc(Cl)cc2)c2nc3ccccc3[nH]2)CC1` (centres unmarked) (as salt: oxalate) [Example 226, 2-[(4-chlorophenyl)(1-methylpiperidin-4-yloxy)methyl]-1H-benzimidazole]: 175 °C.
The figure for `CN1CCC(NC(c2cccc(OCCOc3ccccc3)c2)c2nc3ccccc3[nH]2)CC1` (centres unmarked) (as salt: oxalate) [Example 106, {(1H-benzimidazol-2-yl)[3-(2-phenoxyethoxy)phenyl]methyl}(1-methylpiperidin-4-yl)amine] is 140 °C.
Next, `CN1CCC(OC(c2nc3ccccc3s2)c2ccccc2Cl)CC1` (centres unmarked) (as salt: oxalate) [Example 281, 2-[(2-Chlorophenyl)(1-methylpiperidin-4-yloxy)methyl]benzothiazole]: 163 °C; `CN1CCC(OC(c2cccc(OCc3cccnc3)c2)c2nc3ccccc3s2)CC1` (centres unmarked) (as salt: oxalate) [Example 284, 2-{(1-methylpiperidin-4-yloxy)[3-(pyridin-3-ylmethoxy)phenyl]methyl}benzothiazole]: 102 °C.
As for `Cc1cc(C(OC2CCN(C)CC2)c2nc3ccccc3s2)ccc1F` (centres unmarked) (as salt: oxalate) [Example 34, 2-[(4-fluoro-3-methylphenyl)(1-methylpiperidin-4-yloxy)methyl]benzothiazole], the melting point turned out to be 120 °C.
`CN1CCC(OC(c2nc3ccccc3[nH]2)c2cc(OCCF)ccc2F)CC1` (centres unmarked) (as salt: oxalate) [Example 489]: the melting point amounted to 109 °C.
The figure for `CN1CCC(OC(c2cccc(CCCCN)c2)c2nc3ccccc3s2)CC1` (centres unmarked) (as salt: oxalate) [Example 366, 4-{3-[benzothiazol-2-yl(1-methylpiperidin-4-yloxy)methyl]phenyl}butylamine] is 100 °C; for `CN1CCC(NC(c2cccc(Oc3ccccc3)c2)c2nc3ccccc3[nH]2)CC1` (centres unmarked) (as salt: oxalate) [Example 85, [(1H-benzimidazol-2-yl)(3-phenoxyphenyl)methyl](1-methylpiperidin-4-yl)amine] it is 144 °C; for `CN1CCC(OC(c2cccc(OCCCn3cncn3)c2)c2nc3ccccc3s2)CC1` (centres unmarked) (as salt: oxalate) [Example 348, 2-{(1-methylpiperidin-4-yloxy)[3-(3-[1,2,4]triazol-1-yl-propoxy)phenyl]methyl}benzothiazole] it is 60 °C.
Next, `CN1CCC(OC(c2cccc(Cl)c2)c2nc3ccccc3[nH]2)CC1` (centres unmarked) (as salt: oxalate) [Example 225, 2-[(3-chlorophenyl)(1-methylpiperidin-4-yloxy)methyl]-1H-benzimidazole]: 158 °C; `CCOc1cccc(C(OC2CCN(C)CC2)c2nc3ccccc3s2)c1` (centres unmarked) (as salt: oxalate) [Example 47, 2-[(3-ethoxyphenyl)(1-methylpiperidin-4-yloxy)methyl]benzothiazole]: 84 °C; `CN1CCC(OC(c2nc3ccccc3[nH]2)c2ccc(F)cc2F)CC1` (centres unmarked) (as salt: oxalate) [Example 221, 2-[(2,4-difluorophenyl)(1-methylpiperidin-4-yloxy)methyl]-1H-benzimidazole]: 106 °C.
The figure for `CC(=O)c1ccc(-c2cccc(C(OC3CCN(C)CC3)c3nc4ccccc4[nH]3)c2)cc1` (centres unmarked) (as salt: oxalate) [Example 108, 1-{3′-[(1H-benzimidazol-2-yl)(1-methylpiperidin-4-yloxy)methyl]biphenyl-4-yl}ethanone] is 115 °C.
As for `CN1CCC(OC(c2cccc(OCCN3CCN(C(=O)OC(C)(C)C)CC3)c2)c2nc3ccccc3[nH]2)CC1` (centres unmarked) (as salt: oxalate) [Example 369, 4-(2-{3-[(1H-benzimidazol-2-yl)(1-methylpiperidin-4-yloxy)methyl]phenoxy}ethyl)piperazine-1-carboxylic acid tert-butyl ester], the melting point worked out at 92 °C.
Next, `CN1CCC(OC(c2cccc(OCCO)c2)c2nc3ccccc3s2)CC1` (centres unmarked) (as salt: oxalate) [Example 244, 2-{3-[benzothiazol-2-yl(1-methylpiperidin-4-yloxy)methyl]phenoxy}ethanol]: 45 °C.
The figure for `C=CCOc1cccc(C(NC2CCN(C)CC2)c2nc3ccccc3[nH]2)c1` (centres unmarked) (as salt: oxalate) [Example 112, [(3-allyloxyphenyl)(1H-benzimidazol-2-yl)methyl](1-methylpiperidin-4-yl)amine] is 125 °C; for `CN1CCC(OC(c2cccc(CCCCCN)c2)c2nc3ccccc3s2)CC1` (centres unmarked) (as salt: hydrochloride) [Example 289, 5-{3-[benzothiazol-2-yl(1-methylpiperidin-4-yloxy)methyl]phenyl}pentylamine] it is 110 °C.
Compound `CN1CCC(OC(c2cccc(C#CCCCCNC(=N)N)c2)c2nc3ccccc3s2)CC1` (centres unmarked) (as salt: hydrochloride) [Example 342, N-(6-{3-[benzothiazol-2-yl(1-methylpiperidin-4-yloxy)methyl]phenyl}hex-5-ynyl)guanidine] yielded a melting point of 185 °C.
The figure for `CN1CCC(OC(c2cccc(OCc3cccc(F)c3F)c2)c2nc3ccccc3s2)CC1` (centres unmarked) (as salt: oxalate) [Example 161, 2-[[3-(2,3-difluorobenzyloxy)phenyl](1-methylpiperidin-4-yloxy)methyl]benzothiazole] is 98 °C.
The compound `CN1CCC(OC(c2cccc(I)c2)c2nc3ccccc3n2C)CC1` (centres unmarked) (as salt: oxalate) [Example 472, 2-[(3-iodophenyl)(1-methylpiperidin-4-yloxy)methyl]-1-methyl-1H-benzimidazole] displayed a melting point of 76 °C.
The figure for `CN1CCC(OC(c2cccc(OCc3cccc(C(F)(F)F)c3)c2)c2nc3ccccc3s2)CC1` (centres unmarked) (as salt: oxalate) [Example 187, 2-{(1-methylpiperidin-4-yloxy)[3-(3-trifluoromethyl-benzyloxy)phenyl]methyl}benzothiazole] is 80 °C.
The figure for `CCc1cccc(C(OC2CCN(C)CC2)c2nc3ccccc3s2)c1` (centres unmarked) (as salt: oxalate) [Example 152, 2-[(3-ethylphenyl)(1-methylpiperidin-4-yloxy)methyl]benzothiazole] is 123 °C; for `CN1CCC(NC(c2cccc(OCc3ccc(F)cc3)c2)c2nc3ccccc3[nH]2)CC1` (centres unmarked) (as salt: oxalate) [Example 103, {(1H-benzimidazol-2-yl)[3-(4-fluorobenzyloxy)phenyl]methyl}(1-methylpiperidin-4-yl)amine] it is 140 °C.
The figure for `CN1CCC(OC(c2ccc(OC(F)(F)F)cc2)c2nc3ccccc3s2)CC1` (centres unmarked) (as salt: oxalate) [Example 24, 2-[(1-methylpiperidin-4-yloxy)(4-trifluoromethoxyphenyl)methyl]benzothiazole] is 155 °C; for `CN1CCC(OC(c2cccc(OCCCC(F)(F)F)c2)c2nc3ccccc3s2)CC1` (centres unmarked) (as salt: oxalate) [Example 169, 2-{(1-methylpiperidin-4-yloxy)[3-(4,4,4-trifluoro-butoxy)phenyl]methyl}benzothiazole] it is 115 °C; for `CN1CCC(OC(c2cccc(-c3ccc(Cl)c(Cl)c3)c2)c2nc3ccccc3[nH]2)CC1` (centres unmarked) (as salt: oxalate) [Example 122, 2-[(3′,4′-dichlorobiphenyl-3-yl)(1-methylpiperidin-4-yloxy)methyl]-1H-benzimidazole] it is 150 °C.
In turn, `CN1CCC(OC(c2cccc(OCCCCCN3CCN(C(=O)OC(C)(C)C)CC3)c2)c2nc3ccccc3[nH]2)CC1` (centres unmarked) (as salt: oxalate) [Example 391, 4-(5-{3-[(1H-benzimidazol-2-yl)(1-methylpiperidin-4-yloxy)methyl]phenoxy}pentyl)piperazine-1-carboxylic acid tert-butyl ester] showed a melting point of 101 °C.
The figure for `CN1CCC(OC(c2nc3ccccc3s2)c2c(F)cc(Cl)cc2F)CC1` (centres unmarked) (as salt: oxalate) [Example 532] is 158 °C.
Next, `CN1CCC(OC(c2cccc(OCc3ccccn3)c2)c2nc3ccccc3s2)CC1` (centres unmarked) (as salt: oxalate) [Example 283, 2-{(1-methylpiperidin-4-yloxy)[3-(pyridin-2-ylmethoxy)phenyl]methyl}benzothiazole]: 158 °C.
For the compound `CN1CCC(OC(c2cccc(N3CCC(N)C3)c2)c2nc3ccccc3s2)CC1` (centres unmarked) (as salt: oxalate) [Example 429, 1-{3-[benzothiazol-2-yl(1-methylpiperidin-4-yloxy)methyl]phenyl}pyrrolidin-3-ylamine], the melting point is 137 °C.
The figure for `CN1CCC(OC(c2cccc(Oc3cccnc3)c2)c2nc3ccccc3s2)CC1` (centres unmarked) (as salt: oxalate) [Example 448, 2-{(1-methylpiperidin-4-yloxy)[3-(pyridin-3-yloxy)phenyl]methyl}benzothiazole] is 78 °C.
Next, `CN1CCC(OC(c2ccc(N)cc2)c2nc3ccccc3[nH]2)CC1` (centres unmarked) (as salt: hydrochloride) [Example 455, 4-[(1H-benzimidazol-2-yl)(1-methylpiperidin-4-yloxy)methyl]aniline]: 185 °C.
The figure for `CN1CCC(OC(c2cccc(OCCF)c2)c2nc3ccccc3[nH]2)CC1` (centres unmarked) (as salt: oxalate) [Example 476] is 136 °C; for `CC(=O)CCCOc1cccc(C(OC2CCN(C)CC2)c2nc3ccccc3s2)c1` (centres unmarked) (as salt: oxalate) [Example 186, 5-{3-[benzothiazol-2-yl(1-methylpiperidin-4-yloxy)methyl]phenoxy}pentan-2-one] it is 72 °C.
`Cc1ccc(C(OC2CCN(C)CC2)c2nc3ccccc3o2)c(F)c1` (centres unmarked) (as salt: oxalate) [Example 545]: the melting point was found to be 110 °C.
